In PMC5908784, “Extracellular loops 2 and 3 of the calcitonin receptor selectively modify agonist binding and efficacy” (Biochemical Pharmacology, 2018) one finds Emax data, which are given here for one molecule.

Each structure is given as a SMILES string. Residue numbers refer to the chain shown, from its start.

Holding throughout (test): ERK1/2 phosphorylation
Holding throughout (assay type): cell-based

Experiment [1] concerns the target T1, hCTR N288A (Homo sapiens, UniProt P30988, N288A).
T1 construct: expressed in transfected cells
T1 sequence (P30988 25-474 N288A): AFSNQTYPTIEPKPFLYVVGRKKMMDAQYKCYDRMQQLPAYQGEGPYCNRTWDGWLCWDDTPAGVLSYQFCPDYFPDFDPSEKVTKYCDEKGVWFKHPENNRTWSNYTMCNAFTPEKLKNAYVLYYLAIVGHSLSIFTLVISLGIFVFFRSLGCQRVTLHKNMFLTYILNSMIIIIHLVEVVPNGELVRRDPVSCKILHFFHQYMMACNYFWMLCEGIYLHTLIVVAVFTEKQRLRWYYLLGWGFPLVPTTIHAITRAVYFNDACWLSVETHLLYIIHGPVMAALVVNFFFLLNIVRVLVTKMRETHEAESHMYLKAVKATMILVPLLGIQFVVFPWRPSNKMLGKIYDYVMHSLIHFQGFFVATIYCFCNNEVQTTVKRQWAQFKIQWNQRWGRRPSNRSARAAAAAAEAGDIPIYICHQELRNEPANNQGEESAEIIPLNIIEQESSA
The following applies: pERK maximal response, CV1-FlpIn cells, mean ± S.E.M. In short, it runs like this: (§1)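 Overnight-plated cells at 2.5 × 10^4/well are stimulated, and ERK1/2 phosphorylation is referenced to the 10% FBS response at 6 min before logistic curve fitting.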

Experiment [2] addresses T2, hCTR P363A (Homo sapiens, UniProt P30988, P363A).
T2 construct: expressed in transfected cells
T2 sequence (P30988 25-474 P363A): T1 sequence (P30988 25-474 N288A) with A264N, P339A
As to conditions: pERK maximal response, CV1-FlpIn cells, mean ± S.E.M. The gist of the method:
as §1

The target of experiment [3] is T3, hCTR W361A (Homo sapiens, UniProt P30988, W361A).
T3 construct: expressed in transfected cells
T3 sequence (P30988 25-474 W361A): T1 sequence (P30988 25-474 N288A) with A264N, W337A
The following applies: read-out: Emax (% WT). The gist of the method: as §1

The target in experiment [4] is T4, hCTR V283A (Homo sapiens, UniProt P30988, V283A).
T4 construct: expressed in transfected cells
T4 sequence (P30988 25-474 V283A): T1 sequence (P30988 25-474 N288A) with V259A, A264N
As to conditions: pERK maximal response, CV1-FlpIn cells, mean ± S.E.M. In short, it runs like this:
as §1

In experiment [5] the target is T5, hCTR V375A (Homo sapiens, UniProt P30988, V375A).
T5 construct: c-Myc (N); expressed in transfected cells
T5 sequence (P30988 25-474 V375A): T1 sequence (P30988 25-474 N288A) with A264N, V351A
As to conditions: pERK maximal response, CV1-FlpIn cells, mean ± S.E.M. The gist of the method:
as §1

One may read the Emax as the size of the effect at its maximum, as opposed to the concentration needed. Take `CC(C)C[C@H](NC(=O)[C@H](CCCCN)NC(=O)CNC(=O)[C@H](CC(C)C)NC(=O)[C@@H](NC(=O)[C@@H]1CSSC[C@H](N)C(=O)N[C@@H](CO)C(=O)N[C@@H](CC(N)=O)C(=O)N[C@@H](CC(C)C)C(=O)N[C@@H](CO)C(=O)N[C@@H]([C@@H](C)O)C(=O)N1)C(C)C)C(=O)N[C@@H](CO)C(=O)N[C@@H](CCC(N)=O)C(=O)N[C@@H](CCC(=O)O)C(=O)N[C@@H](CC(C)C)C(=O)N[C@@H](Cc1c[nH]cn1)C(=O)N[C@@H](CCCCN)C(=O)N[C@@H](CC(C)C)C(=O)N[C@@H](CCC(N)=O)C(=O)N[C@H](C(=O)N[C@@H](Cc1ccc(O)cc1)C(=O)N1CCC[C@H]1C(=O)N[C@@H](CCCNC(=N)N)C(=O)N[C@H](C(=O)N[C@@H](CC(N)=O)C(=O)N[C@H](C(=O)NCC(=O)N[C@@H](CO)C(=O)NCC(=O)N[C@H](C(=O)N1CCC[C@H]1C(N)=O)[C@@H](C)O)[C@@H](C)O)[C@@H](C)O)[C@@H](C)O` [sCT]: the Emax was 127 ± 13% in experiment [1]; 95 ± 5% in experiment [2]; 125 ± 5% in experiment [3]; 133 ± 10% in experiment [4]; 70 ± 3% in experiment [5].
